System: B16-OVA melanoma
Experiment: Lung metastasis model
Format: in vivo, mice
Conditions: day 20 after tail vein injection of B16-OVA
Description: Furthermore, a lung metastasis model was selected to evaluate the prevention of lung colonization of melanoma with nanocomposites (FIG. 21a). The administration was similar to that of the tumor model, except that 5×10^5 B16-OVA cells per mouse were injected via tail vein 7 days after the end of the last administration. The mice were dissected on day 20 after injection, the lungs of the mice were removed, and the lungs were washed with Fekete's eluent (70 mL of alcohol, 10 mL of formaldehyde, 5 mL of glacial acetic acid, 15 mL of water). After decoloration, lung tumor nodules were counted. Finally, all tissues were sent to Univ company for tissue section and H&E staining analysis.

Ac-WMβASIINFEKL (WMXSIINFEKL; N-terminal acetyl; beta-alanine; N-terminal Acetylation and Xaa represents a ??-alanine isomer of alanine at the 3AA position; (3)..(3) Xaa is ??-alanine (beta-alanine), an isomer of Alanine) [OVA]
H&E staining of lung tissue: melanoma cell infestation: lung cells infected with melanoma cells were also found
